Measured values: patent publication US20120064056A1, “DICHLORACETATE IN COMBINATION WITH CLINICALLY HIGH LEVELS OF CARDIOPROTECTIVE OR HEMODYNAMIC DRUGS” (THE GOVERNORS OF THE UNIVERSITY OF ALBERTA TEC Edmonton, priority 2002, published 2012)

Assays:
isolated rat hearts [1] = assay: Isolated working rat heart, aerobic perfusion: glycolysis and glucose oxidation; parameters: glycolytic rates (glycolysis) / glucose oxidation rates: unit not given here
Description: (§1) Rat hearts were cannulated for isolated working heart perfusions as described in “An imbalance between glycolysis and glucose oxidation is a possible explanation for the detrimental effects of high levels of fatty acids during aerobic reperfusion of ischemic hearts.”, (J Pharmacol Exp Ther. 264:135 (1993); herein incorporated by reference. In brief, male Sprague-Dawley rats (0.3-0.35 kg) were anesthetized with pentobarbital sodium (60 mg/kg IP) and hearts were quickly excised, the aorta was cannulated and a retrograde perfusion at 37° C. was initiated at a hydrostatic pressure of 60 mm Hg. Hearts were trimmed of excess tissue, and the pulmonary artery and the opening to the left atrium were then cannulated. After 15 min of Langendorff perfusion, hearts were switched to the working mode by clamping the aortic inflow line from the Langendorff reservoir and opening the left atrial inflow line. The perfusate was delivered from an oxygenator into the left atrium at a constant preload pressure of 11 mm Hg. Perfusate was ejected from spontaneously beating hearts into a compliance chamber (containing 1 ml of air) and into the aortic outflow line. The afterload was set at a hydrostatic pressure of 80 mm Hg. All working hearts were perfused with Krebs'-Henseleit solution containing calcium 2.5 mmol/L, glucose 5.5 mmol/L, 3% bovine serum albumin (Fraction V, Boehringer Mannheim), and with 1.2 mmol/L palmitate. Palmitate was bound to the albumin as described previously (Saddik M., et al. J Biol. Chem. 267:3825-3831 (1992)). The perfusate was recirculated, and pH was adjusted to 7.4 by bubbling with a mixture containing 95% O2 and 5% CO2. For the aerobic model hearts, all tested compounds were introduced into the heart 5 minutes into the working mode following Langendorff Perfusion.
Glycolysis and glucose oxidation were measured simultaneously by perfusing hearts with [5-^3H/U-^14C] glucose (Liu H., et al. Am J Physiol. 270:H72-H80 (1996); Taegtmeyer Het al. Am J Cardiol. 80:3A-10A (1997)). The total myocardial ^3H2O production and ^14CO2 production were determined at 10 minute intervals for the entirety of the aerobic period, 60 minutes for normal hearts and 30 minutes for the global ischemia and low flow demand ischemia models. In the global ischemia model, the total myocardial ^3H2O and ^14CO2 production were determined at 20 minute intervals for the 60 minute reperfusion period. In the low flow demand ischemia model, the total myocardial ^3H2O and ^14CO2 production were determined at 10 minute intervals for the 30 minute reperfusion period. Glucose oxidation rates were determined by quantitative measurement of ^14CO2 production as described previously (Barbour R. L., et al. Biochemistr. 1923:6503-6062 (1984)).

isolated rat hearts [2] = assay: Isolated working rat heart, aerobic perfusion: cardiac function and efficiency; parameters: Cardiac Work (CO · PSP): unit not given beside the values
Description: as §1
Spontaneously beating hearts were used in all perfusions. Heart rate and aortic pressure were measured with a Biopac Systems Inc. blood pressure transducer connected to the aortic outflow line. Cardiac output and aortic flow were measured with Transonic T206 ultrasonic flow probes in the preload and afterload lines, respectively. Coronary flow was calculated as the difference between cardiac output and aortic flow. The O2 contents of the perfusate entering and leaving the heart were measured using YSI™ micro oxygen electrodes placed in the preload and pulmonary arterial lines, respectively. Myocardial O2 consumption (MVO2) was calculated according to the Fick principle, using coronary flow rates and the arteriovenous difference in perfusate O2 concentration. Cardiac work was calculated as the product of systolic pressure and cardiac output. Cardiac efficiency was defined as a ratio of cardiac work to MVO2.

[3] = aerobically perfused, DCA 2 mM, diltiazem 0.8 μM, digoxin 3 nM, metoprolol 1 μM, dobutamine 1 μM
[4] = aerobically perfused, DCA 2 mM, diltiazem 0.8 μM, digoxin 3 nM, metoprolol 1 μM, dobutamine 1 μM, listed as dobutamine

CC(CCc1ccc(O)cc1)NCCc1ccc(O)c(O)c1 (stereo not drawn) [Dobutamine, dobutamine]
increase in glucose metabolism (isolated rat hearts [1]; aerobic model): ~400% | glucose oxidation rates (isolated rat hearts [1]; normal hearts, aerobic, FIG. 1, 3, 5, 7, control 361±43, DCA 2 mM, digoxin 3 nM, diltiazem 0.8 μM, dobutamine 1 μM, metoprolol 1 μM): 1707±435 | glycolytic rates (glycolysis) (isolated rat hearts [1]; normal hearts, aerobic, FIG. 2, 4, 6, 8, control 3.430±0.604, DCA 2 mM, digoxin 3 nM, diltiazem 0.8 μM, dobutamine 1 μM, metoprolol 1 μM): 13.365±1.981 | Aortic Outflow (isolated rat hearts [2]; [3]): 32 ± 3 mL/min | Cardiac Efficiency (CW · O2^−1) (isolated rat hearts [2]; [3]): 1.56 ± 0.43 | Cardiac Output (isolated rat hearts [2]; [3]): 52 ± 2 mL/min | Cardiac Work (CO · PSP) (isolated rat hearts [2]; [3]): 64 ± 5 | Coronary Flow (isolated rat hearts [2]; [3]): 20 ± 4 mL/min | HR × PSP (isolated rat hearts [2]; [3]): 40 ± 2 beats · min^−1 · mmHg · 10^−2 | Heart Rate (isolated rat hearts [2]; [3]): 333 ± 7 beats · min^−1 | O2 Consumption (isolated rat hearts [2]; [3]): 44 ± 9 μmolO2 · g dry wt^−1 · min^−1 | Peak Systolic Pressure (isolated rat hearts [2]; [3]): 124 ± 3 mmHg | HR × PSP (isolated rat hearts [2]; [4]): 40±2 beats · min^−1 · mmHg · 10^−2 | Heart Rate (isolated rat hearts [2]; [4]): 333±7 beats · min^−1 | effect on functional parameters shown in Table 2 incl. O2 consumption and cardiac efficiency, in words (isolated rat hearts [2]; normal hearts, aerobic, compared to control): no significant effect
